In the assay the target is T1, human GnRH receptor (Homo sapiens, UniProt P30968).
T1 construct: line established by Prof; Thomas Gudermann; host or cells: CHO cells
T1 sequence (P30968 1-328): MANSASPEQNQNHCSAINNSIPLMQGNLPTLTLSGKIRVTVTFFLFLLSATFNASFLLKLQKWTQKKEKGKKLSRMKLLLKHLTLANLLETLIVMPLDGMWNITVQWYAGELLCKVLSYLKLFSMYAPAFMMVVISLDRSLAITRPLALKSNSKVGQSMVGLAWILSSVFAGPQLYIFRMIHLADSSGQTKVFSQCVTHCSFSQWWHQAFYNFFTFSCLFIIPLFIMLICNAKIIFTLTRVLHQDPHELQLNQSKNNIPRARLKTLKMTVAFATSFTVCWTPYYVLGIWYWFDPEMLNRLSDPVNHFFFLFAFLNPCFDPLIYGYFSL
The assay can be described thus: IP-One HTRF assay (inhibition of GnRH-R activation by buserelin). The conditions noted are these: IP-One HTRF assay with buserelin (at EC80) stimulation; CHO cells stably expressing human GnRH receptor; tested 20 µM to 1 nM; read-out: Potency IC50. In kind it is cell-based. The method in brief:
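CHO cells stably expressing human GnRH-R, pre-incubated 20 min at 22°C with compound (10 concentrations, 20 µM to 1 nM, duplicates), then stimulated 1 h at 37°C with buserelin or LHRH at EC50 or EC80 in pH 7.4 buffer with 50 mM LiCl. IP1 read by HTRF 665/620 nm ratio; IC50 by 4-parameter fit.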

On to `O=C(Nc1ccon1)c1ccc2c(c1)C1(CCC(O)(C(F)(F)F)CC1)C(C1CC1)N2S(=O)(=O)c1ccc(F)cc1` (single isomer, unassigned) [Example 56-2], for which the concentration for half-maximal inhibition (IC50) was found to be 17400 nM.

On to `CC(C)=CCC1N(S(=O)(=O)c2ccc(F)cc2)c2ccc(C(=O)Nc3cccc(C)c3)cc2C12CCC(O)(C(F)(F)F)CC2` (stereo not drawn) [Example 13, 1'-[(4-fluorophenyl)sulfonyl]-4-hydroxy-2'-(3-methylbut-2-en-1-yl)-N-(3-methylphenyl)-4-(trifluoromethyl)-1',2'-dihydrospiro[cyclohexane-1,3'-indole]-5'-carboxamide], for which the 50% inhibitory concentration (IC50) came to 3250 nM.

Take `CC(C)=CCC1N(S(=O)(=O)c2ccc(F)cc2)c2ccc(C(=O)Nc3cccc(C(=O)O)c3)cc2C12CCC(O)(C(F)(F)F)CC2` (stereo not drawn) [Example 14, 3-[({1'-[(4-fluorophenyl)sulfonyl]-4-hydroxy-2'-(3-methylbut-2-en-1-yl)-4-(trifluoromethyl)-1',2'-dihydrospiro[cyclohexane-1,3'-indol]-5'-yl}carbonyl)amino] benzoic acid]: the 50% inhibitory concentration (IC50) amounted to 639 nM.

On to `O=C(NCc1ncccc1C(F)(F)F)c1ccc2c(c1)C1(CCC(O)(C(F)(F)F)CC1)C(C1CC1)N2S(=O)(=O)c1ccc(F)cc1` (single isomer, unassigned) [Example 65-2], for which the concentration for half-maximal inhibition (IC50) was determined as 116 nM.

For the compound `COc1cccc(S(=O)(=O)N2c3ccc(C(=O)NCc4ncccc4C(F)(F)F)cc3C3(CCC(O)(C(F)(F)F)CC3)C2C2CC2)c1` (stereo not drawn) [Example 44, 2'-cyclopropyl-4-hydroxy-1'-[(3-methoxyphenyl)su Ifonyl]-4-(trifluoromethyl)-N-{[3-(trifluoromethyl)pyridin-2-yl]methyl}-1',2'-dihydrospiro[cyclohexane-1,3'-indole]-5'-carboxamide], the IC50 stood at 403 nM.

For the compound `O=C1CCC2(CC1)c1cc(C(=O)NCc3ccccc3Cl)ccc1N(S(=O)(=O)c1ccc(F)cc1)C2C1CC1` (single isomer, unassigned) [Example 3-1], the IC50 was 41.3 nM.

`O=C(NCc1ncc(C(F)(F)F)cc1F)c1ccc2c(c1)C1(CCC(O)(C(F)(F)F)CC1)C(C1CC1)N2S(=O)(=O)c1cccc(C(=O)N2CCC2)c1` (stereo not drawn) [Example 63, 1'-{[3-(azetidin-1-ylcarbonyl)phenyl]sulfonyl}-2'-cyclopropyl-N-{[3-fluoro-5-(trifluoromethyl)pyridin-2-yl]methyl}-4-hydroxy-4-(trifluoromethyl)-1',2'-dihydrospiro[cyclohexane-1,3'-indole]-5'-carboxamide]: the IC50 amounted to 3210 nM.

For `O=C(O)c1cccc(S(=O)(=O)N2c3ccc(C(=O)NCc4ncccc4C(F)(F)F)cc3C3(CCC(O)(C(F)(F)F)CC3)C2C2CC2)c1` (stereo not drawn) [Example 50, 3-{[2'-cyclopropyl-4-hydroxy-4-(trifluoromethyl)-5'-({[3-(trifluoromethyl)pyridin-2-yl]methyl}carbamoyl)spiro[cyclohexane-1,3'-indol]-1'(2'H)-yl]sulfonyl}benzoic acid], the half-maximal inhibitory concentration (IC50) was determined as 3070 nM.

For `O=C(NCc1ccccc1Cl)c1ccc2c(c1)C1(CCC(O)(C(F)(F)F)CC1)C(C1CC1)N2S(=O)(=O)c1ccc(F)cc1` (stereo not drawn) [Example 62, N-(2-chlorobenzyl)-2'-cyclopropyl-1'-[(4-fluorophenyl)sulfonyl]-4-hydroxy-4-(trifluoromethyl)-1',2'-dihydrospiro[cyclohexane-1,3'-indole]-5'-carboxamide], the IC50 was 253 nM.

As for `O=C(NC1CCc2ccccc21)c1ccc2c(c1)C1(CCC(O)(C(F)(F)F)CC1)C(C1CC1)N2S(=O)(=O)c1ccc(F)cc1` (stereo not drawn) [Example 53, 2'-cyclopropyl-N-(2,3-dihydro-1H-inden-1-yl)-1'-[(4-fluorophenyl)sulfonyl]-4-hydroxy-4-(trifluoromethyl)-1',2'-dihydrospiro[cyclohexane-1,3'-indole]-5'-carboxamide], the IC50 was determined as 611 nM.

Consider `O=C(Nc1ccon1)c1ccc2c(c1)C1(CCC(O)(C(F)(F)F)CC1)C(C1CC1)N2S(=O)(=O)c1ccc(F)cc1` (stereo not drawn) [Example 56, 2'-cyclopropyl-1' [(4-fluorophenyl)sulfonyl]-4-hydroxy-N-(1,2-oxazol-3-yl)-4-(trifluoromethyl)-1',2'-dihydrospiro[cyclohexane-1,3'-indole]-5'-carboxamide], for which the 50% inhibitory concentration (IC50) stood at 286 nM.

Regarding `O=C(NCc1ccccc1Cl)c1ccc2c(c1)C1(CCC(O)(C(F)(F)F)CC1)C(C1CC1)N2S(=O)(=O)c1ccc(F)cc1` (single isomer, unassigned) [Example 62-2], the IC50 turned out to be 3280 nM.

`O=C(NCc1ncc(C(F)(F)F)cc1Cl)c1ccc2c(c1)C1(CCC(O)CC1)C(C1CC1)N2S(=O)(=O)c1ccc(F)cc1` (stereo not drawn) [Example 7, N-{[3-chloro-5-(trifluoromethyl)pyridin-2-yl]methyl}-2'-cyclopropyl-1'-[(4-fluorophenyl)sulfonyl]-4-hydroxy-1',2'-dihydrospiro[cyclohexane-1,3'-indole]-5'-carboxamide]: the 50% inhibitory concentration (IC50) amounted to 52.1 nM.

As for `COC(=O)c1cccc(NC(=O)c2ccc3c(c2)C2(CCC(O)(C(F)(F)F)CC2)C(CC=C(C)C)N3S(=O)(=O)c2ccc(F)cc2)c1` (stereo not drawn) [Example 32, methyl 3-[({1'-[(4-fluorophenyl)sulfonyl]-4-hydroxy-2'-(3-methylbut-2-en-1-yl)-4-(trifluoromethyl)-1',2'-dihydrospiro[cyclohexane-1,3'-indol]-5'-yl}carbonyl)amino] benzoate], the IC50 came out at 494 nM.

Take `O=C(Nc1ccon1)c1ccc2c(c1)C1(CCC(O)(C(F)(F)F)CC1)C(C1CC1)N2S(=O)(=O)c1cccc(C(=O)N2CCC2)c1` (stereo not drawn) [Example 57, 1'-{[3-(azetidin-1-ylcarbonyl)phenyl]sulfonyl}-2'-cyclopropyl-4-hydroxy-N-(1,2-oxazol-3-yl)-4-(trifluoromethyl)-1',2'-dihydrospiro[cyclohexane-1,3'-indole]-5'-carboxamide]: the concentration for half-maximal inhibition (IC50) came out at 1220 nM.

On to `O=C(Nc1cccc(C(F)(F)F)c1)c1ccc2c(c1)C1(CCC(O)(C(F)(F)F)CC1)C(C1CC1)N2S(=O)(=O)c1ccc(F)cc1` (stereo not drawn) [Example 54, 2'-cyclopropyl-1 [(4-fluorophenyl)sulfonyl]-4-hydroxy-4-(trifluoromethyl)-N-[3-(trifluoromethyl)phenyl]-1',2'-dihydrospiro[cyclohexane-1,3'-indole]-5'-carboxamide], for which the IC50 turned out to be 2320 nM.

For the compound `COC(=O)c1cccc(S(=O)(=O)N2c3ccc(C(=O)Nc4ccon4)cc3C3(CCC(O)(C(F)(F)F)CC3)C2C2CC2)c1` (stereo not drawn) [Example 27, methyl 3-{[2'-cyclopropyl-4-hydroxy-5'-(1,2-oxazol-3-ylcarbamoyl)-4-(trifluoromethyl)spiro[cyclohexane-1,3'-indol]-1'(2'H)-yl]sulfonyl}benzoate], the 50% inhibitory concentration (IC50) was determined as 1120 nM.

Consider `O=C(NCC1CC1)c1ccc2c(c1)C1(CCC(O)(C(F)(F)F)CC1)C(C1CC1)N2S(=O)(=O)c1ccc(F)cc1` (stereo not drawn) [Example 59, 2'-cyclopropyl-N-(cyclopropylmethyl)-1'-[(4-fluorophenyl)sulfonyl]-4-hydroxy-4-(trifluoromethyl)-1',2'-dihydrospiro[cyclohexane-1,3'-indole]-5'-carboxamide], for which the 50% inhibitory concentration (IC50) was found to be 690 nM.

As for `O=C(O)c1cccc(S(=O)(=O)N2c3ccc(C(=O)NCc4ncc(C(F)(F)F)cc4F)cc3C3(CCC(O)(C(F)(F)F)CC3)C2C2CC2)c1` (stereo not drawn) [Example 49, 3-{[2'-cyclopropyl-5'-({[3-fluoro-5-(trifluoromethyl)pyridin-2-yl]methyl}carbamoyl)-4-hydroxy-4-(trifluoromethyl)spiro[cyclohexane-1,3'-indol]-1'(2'H)-yl]sulfonyl}benzoic acid], the IC50 stood at 4300 nM.

Regarding `COc1cccc(S(=O)(=O)N2c3ccc(C(=O)Nc4cc[nH]n4)cc3C3(CCC(O)(C(F)(F)F)CC3)C2C2CC2)c1` (stereo not drawn) [Example 33, 2'-cyclopropyl-4-hydroxy-1'-[(3-methoxyphenyl)su Ifonyl]-N-(1H-pyrazol-3-yl)-4-(trifluoromethyl)-1',2'-dihydrospiro[cyclohexane-1,3'-indole]-5'-carboxamide], the IC50 was 2230 nM.

For the compound `O=C(Nc1ccon1)c1ccc2c(c1)C1(CCC(O)(C(F)(F)F)CC1)C(C1CC1)N2S(=O)(=O)c1ccc(F)cc1` (single isomer, unassigned) [Example 56-1], the half-maximal inhibitory concentration (IC50) came out at 215 nM.

As to `CC(C)=CCC1N(S(=O)(=O)c2ccc(F)cc2)c2ccc(C(=O)Nc3ncco3)cc2C12CCC(O)(C(F)(F)F)CC2` (stereo not drawn) [Example 20, 1'-[(4-fluorophenyl)sulfonyl]-4-hydroxy-2'-(3-methylbut-2-en-1-yl)-N-(1,3-oxazol-2-yl)-4-(trifluoromethyl)-1',2'-dihydrospiro[cyclohexane-1,3'-indole]-5'-carboxamide], the half-maximal inhibitory concentration (IC50) is 655 nM.

`CC(C)=CCC1N(S(=O)(=O)c2ccc(F)cc2)c2ccc(C(=O)Nc3cncc(C)c3)cc2C12CCC(O)(C(F)(F)F)CC2` (stereo not drawn) [Example 18, 1'-[(4-fluorophenyl)sulfonyl]-4-hydroxy-2'-(3-methylbut-2-en-1-yl)-N-(5-methylpyridin-3-yl)-4-(trifluoromethyl)-1',2'-dihydrospiro[cyclohexane-1,3'-indole]-5'-carboxamide]: the IC50 stood at 1840 nM.

With `O=C1CCC2(CC1)c1cc(C(=O)NCc3ccccc3Cl)ccc1N(S(=O)(=O)c1ccc(F)cc1)C2C1CC1` (racemic) [Example 3, N-(2-chlorobenzyl)-2'-cyclopropyl-1'-[(4-fluorophenyl)sulfonyl]-4-oxo-1',2'-dihydrospiro[cyclohexane-1,3'-indole]-5'-carboxamide], the half-inhibitory concentration (IC50) is 46.8 nM.

One may read the IC50 as the concentration needed to halve the response being measured.

These data come from EP2881391A1, “Spiroindoline carbocycle derivatives and pharmaceutical compositions thereof” (Bayer Pharma Aktiengesellschaft, priority 2013, dated 2015).
